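Tested at 5 concentrations; 48 h exposure; 96-well plates; endpoints linearly interpolated, else capped at highest concentration. GI50: concentration for 50% inhibition of growth.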 Calls of active or inactive are those of the source. Cut-off read from the data, not from the text of the source: active = GI50 up to about 1.1 µM and inactive = higher.
Key:
Experiment in all cases: growth of human tumour cells (NCI), 48 h
[1] = test system: 786-0
[2] = test system: A549
[3] = test system: COLO 205
[4] = test system: DU-145
[5] = test system: HOP-62
[6] = test system: HOP-92
[7] = test system: Hs-578T
[8] = test system: KM12
[9] = test system: LOX IMVI
[10] = test system: MDA-MB-435
[11] = test system: NCI-H226
[12] = test system: OVCAR-4
[13] = test system: SF-268
[14] = test system: SK-MEL-5
[15] = test system: SW-620
[16] = test system: TK-10
[17] = test system: UO-31
[18] = test system: A498
[19] = test system: CCRF-CEM
[20] = test system: EKVX

Measured: GI50

CCCC(=O)Nc1ccc2c(c1)CN1C(=O)c3ccccc3C1=N2
inactive: [1] > 100 µM | [2] > 100 µM | [3] > 100 µM | [4] > 100 µM | [5] > 100 µM | [6] > 100 µM | [7] > 100 µM | [8] > 100 µM | [9] > 100 µM | [10] > 100 µM | [11] > 100 µM | [12] > 100 µM | [13] > 100 µM | [14] > 100 µM | [15] > 100 µM | [16] > 100 µM | [17] > 100 µM

Cc1csc2c1-n1cccc1C2=O
inactive: [1] > 100 µM | [18] 36 µM | [2] > 100 µM | [19] > 100 µM | [3] > 100 µM | [4] > 100 µM | [20] 64.3 µM | [5] 53 µM | [7] > 100 µM | [8] > 100 µM | [9] > 100 µM | [10] 67.3 µM | [11] > 100 µM | [12] > 100 µM | [13] > 100 µM | [14] > 100 µM | [15] > 100 µM | [16] > 100 µM | [17] 43.3 µM

CN1CCC/C1=C1/C(=O)N(c2ccccc2)N=C1c1ccc[nH]1
inactive: [1] > 100 µM | [18] > 100 µM | [2] > 100 µM | [19] > 100 µM | [3] > 100 µM | [4] > 100 µM | [20] > 100 µM | [5] > 100 µM | [7] > 100 µM | [8] > 100 µM | [9] > 100 µM | [10] > 100 µM | [11] > 100 µM | [12] > 100 µM | [13] > 100 µM | [14] > 100 µM | [15] > 100 µM | [16] > 100 µM | [17] > 100 µM

CCOC(OCC)[C@H](N)[C@@H](O)[C@@H](O)[C@H]1COC(C)(C)O1
inactive: [1] > 100 µM | [18] > 100 µM | [2] > 100 µM | [19] > 100 µM | [3] > 100 µM | [4] > 100 µM | [20] > 100 µM | [5] > 100 µM | [7] > 100 µM | [8] > 100 µM | [9] > 100 µM | [10] > 100 µM | [11] > 100 µM | [12] > 100 µM | [13] > 100 µM | [14] > 100 µM | [15] > 100 µM | [16] > 100 µM | [17] > 100 µM

O=C(c1cccnc1)N1N=C(c2ccc(Cl)cc2)CC1(O)c1cc(F)c(Cl)cc1Cl (stereo unspecified)
inactive: [1] 17.9 µM | [2] 24.9 µM | [19] 13.3 µM | [3] 9.98 µM | [4] 16.9 µM | [20] 17.5 µM | [5] 21.5 µM | [6] 17.5 µM | [7] 29.4 µM | [8] 28.8 µM | [9] 15.1 µM | [10] 15.9 µM | [11] 11.6 µM | [12] 15.8 µM | [13] 19.2 µM | [14] 11.3 µM | [15] 22.2 µM | [16] 41.1 µM | [17] 15.9 µM

CCOC(=O)C1=CCOc2cc(N(C)C)ccc21
inactive: [1] > 100 µM | [18] > 100 µM | [2] > 100 µM | [19] 21.6 µM | [3] > 100 µM | [4] > 100 µM | [20] > 100 µM | [5] > 100 µM | [7] > 100 µM | [8] > 100 µM | [9] > 100 µM | [10] > 100 µM | [11] > 100 µM | [13] 97.5 µM | [14] > 100 µM | [15] > 100 µM | [16] > 100 µM | [17] > 100 µM

C1=CN2C[n+]3cccc(OCc4ccccc4)c3N=C2C(OCc2ccccc2)=C1
inactive: [1] 15.3 µM | [18] 85.9 µM | [2] 19.5 µM | [3] 3.88 µM | [4] 6.92 µM | [20] 24.2 µM | [5] 17.6 µM | [6] 12.5 µM | [7] 2.36 µM | [9] 20.8 µM | [10] 14.4 µM | [11] 29.4 µM | [12] 4.81 µM | [13] 6.25 µM | [14] 5 µM | [15] 11.9 µM | [16] 56 µM | [17] > 100 µM

O=C1CSC(c2ccc([N+](=O)[O-])cc2)N1c1nc(-c2ccc3c(c2)CCCC3)cs1 (stereo unspecified)
inactive: [1] > 100 µM | [18] > 100 µM | [3] > 100 µM | [4] > 100 µM | [20] > 100 µM | [5] > 100 µM | [7] > 100 µM | [8] > 100 µM | [9] 25.1 µM | [10] 33.4 µM | [11] > 100 µM | [12] > 100 µM | [13] > 100 µM | [14] 51.1 µM | [15] > 100 µM | [16] > 100 µM | [17] > 100 µM

O=C(O)c1ccccc1/C=N/N=C1NCCN1
inactive: [1] > 100 µM | [18] 26.8 µM | [2] > 100 µM | [19] > 100 µM | [3] > 100 µM | [20] > 100 µM | [5] > 100 µM | [6] 22.7 µM | [7] > 100 µM | [8] > 100 µM | [9] > 100 µM | [10] > 100 µM | [11] > 100 µM | [12] > 100 µM | [13] 97.9 µM | [14] > 100 µM | [15] > 100 µM | [16] 46.8 µM | [17] 44.4 µM

CCOC(=O)c1c(NC(=O)c2ccc(Br)cc2)sc2c1CCCC2
inactive: [1] > 100 µM | [18] 25.1 µM | [2] > 100 µM | [19] > 100 µM | [3] > 100 µM | [4] > 100 µM | [20] > 100 µM | [5] > 100 µM | [7] 75.5 µM | [8] 39.1 µM | [10] > 100 µM | [11] > 100 µM | [13] > 100 µM | [14] > 100 µM | [15] > 100 µM | [16] > 100 µM | [17] > 100 µM

CC1(C)S[C@H](CN)N[C@H]1C(=O)OC(c1ccccc1)c1ccccc1
inactive: [1] 48.5 µM | [18] 20 µM | [2] 42.2 µM | [3] 17.6 µM | [4] > 100 µM | [20] 47.2 µM | [5] 49.9 µM | [6] 16.7 µM | [7] 83.2 µM | [8] 38.5 µM | [9] 17.4 µM | [10] 30.3 µM | [11] > 100 µM | [12] 27.3 µM | [13] 88.1 µM | [14] 17.2 µM | [15] 43.6 µM | [16] 61.7 µM | [17] 22.3 µM

N#Cc1sc2c(c1OC(=O)c1ccco1)c(=O)n(-c1ccccc1)c(=S)n2-c1ccccc1
inactive: [1] 31.1 µM | [2] 35.9 µM | [19] > 10 µM | [3] 22.8 µM | [4] 48.5 µM | [20] 52.6 µM | [5] 25.9 µM | [7] 57.4 µM | [8] 30.3 µM | [9] 16.2 µM | [10] 27.7 µM | [11] 34.3 µM | [12] 23.6 µM | [13] 32.4 µM | [14] 17.6 µM | [15] 17.7 µM | [16] 49.8 µM | [17] 16 µM

N#CC(Cc1ccccc1)N(CCC1=CCCCC1)Cc1ccccc1 (stereo unspecified)
inactive: [1] > 100 µM | [18] > 100 µM | [2] 54.7 µM | [3] 23.4 µM | [4] > 100 µM | [20] 56.5 µM | [5] > 100 µM | [6] 35.1 µM | [7] > 100 µM | [8] 43.1 µM | [10] 22 µM | [12] 83.9 µM | [13] > 100 µM | [14] 22.3 µM | [15] 41.1 µM | [16] > 100 µM | [17] > 100 µM

O=C(O)Cn1ccc(=O)c2cc([N+](=O)[O-])ccc21
inactive: [1] > 100 µM | [18] > 100 µM | [2] > 100 µM | [19] > 100 µM | [3] 48.8 µM | [4] 38.1 µM | [5] > 100 µM | [7] > 100 µM | [8] > 100 µM | [10] > 100 µM | [11] > 100 µM | [13] > 100 µM | [14] > 100 µM | [15] > 100 µM | [16] > 100 µM | [17] > 100 µM

Cc1cc2c3ccccc3[nH]c2c2ccnc(C)c12
inactive: [1] 1.65 µM | [2] 8.28 µM | [19] 2.29 µM | [3] 1.94 µM | [4] 6.47 µM | [20] 1.49 µM | [5] 13.6 µM | [6] 5.11 µM | [7] 13.6 µM | [8] 10.6 µM | [9] 2.15 µM | [10] 1.65 µM | [11] 13.4 µM | [12] > 100 µM | [13] 17.6 µM | [14] 4.78 µM | [15] 2.47 µM | [16] 14.2 µM | [17] 14.2 µM

Reference: ChEMBL document CHEMBL1201862, “PubChem BioAssay data set” (2004)
